Measured values reported in ChEMBL document CHEMBL5523735 (J Med Chem, 2024).
In brackets after ≈: the same amount, converted by molar mass. Activity calls are given as the source filed them. No cut-off for these calls is given here.

Columns and labels:
[1] = Aqueous solubility of compound in PBS at pH 7.4 by spectrometry; format: physicochemical; conditions: buffer
[2] = Metabolic stability in human liver microsomes measured for 90 mins; format: ADME, Microsome; conditions: 1.5 h
[3] = Aqueous solubility of compound in SGF at pH 1.2 by spectrometry; format: ADME
[4] = target: T1, P2Y purinoceptor 14 (Homo sapiens) (UniProt Q15391); conditions: HEK293, filed as antagonist, dose 100.0 nM
T1 sequence (whole entry): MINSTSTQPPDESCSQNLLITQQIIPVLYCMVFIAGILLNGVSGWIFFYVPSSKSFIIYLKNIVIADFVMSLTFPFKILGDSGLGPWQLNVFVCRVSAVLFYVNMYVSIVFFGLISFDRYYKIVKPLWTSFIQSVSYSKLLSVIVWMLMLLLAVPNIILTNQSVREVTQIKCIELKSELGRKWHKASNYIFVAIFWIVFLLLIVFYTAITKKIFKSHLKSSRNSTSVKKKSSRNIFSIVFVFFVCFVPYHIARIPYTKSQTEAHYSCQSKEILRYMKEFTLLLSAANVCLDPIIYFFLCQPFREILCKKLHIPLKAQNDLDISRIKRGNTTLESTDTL
Description: Antagonist activity at P2Y14R (unknown origin) stably expressed in HEK293 cells assessed as inhibition of forskolin-induced cAMP production at 100 nM by cAMP-Glo assay relative to control

P2Y purinoceptor 14 = target: T2, P2Y purinoceptor 14 (Homo sapiens, UniProt Q15391); assay: Antagonist activity at P2Y14R (unknown origin) stably expressed in HEK293 cells assessed as inhibition of forskolin-induced cAMP production by cAMP-Glo assay; format: functional, cell-based
T2 sequence (Q15391 whole entry): T1 sequence (whole entry)

[5] = Aqueous solubility of compound in double distilled water at pH 7 by spectrometry; format: physicochemical; conditions: buffer
[6] = Aqueous solubility of compound in SIF at pH 6.8 by spectrometry; format: ADME; conditions: simulated gi fluid
[7] = AUC (all) in Sprague-Dawley rat at 5 mg/kg, po; format: ADME, organism-based; conditions: in vivo
[8] = Oral bioavailability in Sprague-Dawley rat at 5 mg/kg; format: ADME, organism-based; conditions: in vivo
Mus musculus [9] = assay: Anti-colitis activity in C57BL/6 mouse model of DSS-induced colitis assessed as decrease in histological damage in colon at 100 uM, REC for 7 days administered daily by H and E staining based analysis; format: functional, organism-based; conditions: time 7.0 day
[10] = AUC (all) in Sprague-Dawley rat at 1 mg/kg, iv; format: ADME, organism-based; conditions: in vivo
Mus musculus [11] = assay: Anti-colitis activity in C57BL/6 mouse model of DSS-induced colitis assessed as decrease in endoscopic damage in colon at 100 uM, REC for 7 days administered daily; format: functional, organism-based; conditions: time 7.0 day
Mus musculus [12] = assay: Anti-colitis activity in C57BL/6 mouse model of DSS-induced colitis assessed as increase in colon length at 100 uM, REC for 7 days administered daily; format: functional, organism-based; conditions: time 7.0 day
Mus musculus [13] = assay: Anti-colitis activity in C57BL/6 mouse model of DSS-induced colitis assessed as decrease in rectal bleeding at 100 uM, REC for 7 days administered daily; format: functional, organism-based; conditions: time 7.0 day
[14] = Tmax in Sprague-Dawley rat at 5 mg/kg, po; format: ADME, organism-based; conditions: in vivo
Mus musculus [15] = assay: Anti-colitis activity in C57BL/6 mouse model of DSS-induced colitis assessed as increase in body weight at 100 uM, REC for 7 days administered daily; format: functional, organism-based; conditions: time 7.0 day
[16] = Half life in Sprague-Dawley rat at 1 mg/kg, iv; format: ADME, organism-based; conditions: in vivo
[17] = Cmax in Sprague-Dawley rat at 5 mg/kg, po; format: ADME, organism-based; conditions: in vivo
Mus musculus [18] = assay: Anti-colitis activity in C57BL/6 mouse model of DSS-induced colitis assessed as decrease in loose stools at 100 uM, REC for 7 days administered daily; format: functional, organism-based; conditions: time 7.0 day
Mus musculus [19] = assay: Anti-colitis activity in C57BL/6 mouse model of DSS-induced colitis assessed as decrease in spleen weight index at 100 uM, REC for 7 days administered daily; format: functional, organism-based; conditions: time 7.0 day
Mus musculus [20] = assay: Anti-colitis activity in C57BL/6 mouse model of DSS-induced colitis assessed as increase in intestinal epithelial cells in colon at 100 uM, REC for 7 days administered daily by H and E staining based analysis by immunofluorescence based analysis; format: functional, organism-based; conditions: time 7.0 day
[21] = Half life in Sprague-Dawley rat at 5 mg/kg, po; format: ADME, organism-based; conditions: in vivo
P2Y purinoceptor 4 = P2Y purinoceptor 4 (Homo sapiens, UniProt P51582); assay: Inhibition of P2Y4R (unknown origin) expressed in HEK293 cells assessed as decrease in IP3 production; format: functional, cell-based
Sequence of P2Y purinoceptor 4 (P51582 whole entry): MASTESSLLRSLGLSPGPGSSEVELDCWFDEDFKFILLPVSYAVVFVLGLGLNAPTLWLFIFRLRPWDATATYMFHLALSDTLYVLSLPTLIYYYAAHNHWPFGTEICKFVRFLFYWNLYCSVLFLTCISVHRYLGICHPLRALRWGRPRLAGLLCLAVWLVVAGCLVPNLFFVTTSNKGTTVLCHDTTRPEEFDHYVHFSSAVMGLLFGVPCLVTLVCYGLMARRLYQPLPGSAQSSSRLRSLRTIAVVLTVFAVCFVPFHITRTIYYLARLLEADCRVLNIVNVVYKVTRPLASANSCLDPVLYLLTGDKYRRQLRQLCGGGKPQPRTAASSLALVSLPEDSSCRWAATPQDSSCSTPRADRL

P2Y purinoceptor 6 = P2Y purinoceptor 6 (Homo sapiens, UniProt Q15077); assay: Inhibition of P2Y6R (unknown origin) expressed in HEK293 cells assessed as decrease in IP3 reduction
Sequence of P2Y purinoceptor 6 (Q15077 whole entry): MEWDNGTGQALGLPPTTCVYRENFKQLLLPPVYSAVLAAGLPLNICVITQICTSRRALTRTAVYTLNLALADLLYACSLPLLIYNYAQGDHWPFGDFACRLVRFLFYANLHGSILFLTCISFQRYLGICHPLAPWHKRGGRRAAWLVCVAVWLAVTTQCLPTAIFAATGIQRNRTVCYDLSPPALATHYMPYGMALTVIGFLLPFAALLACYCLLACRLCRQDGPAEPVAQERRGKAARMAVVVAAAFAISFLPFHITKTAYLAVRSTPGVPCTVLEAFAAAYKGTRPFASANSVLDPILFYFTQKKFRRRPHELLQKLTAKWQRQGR

P2Y purinoceptor 12 = P2Y purinoceptor 12 (Homo sapiens, UniProt Q9H244); assay: Inhibition of P2Y12R (unknown origin) expressed in HEK293 cells assessed as restoration of cAMP reduction; format: functional, cell-based
Sequence of P2Y purinoceptor 12 (Q9H244 whole entry): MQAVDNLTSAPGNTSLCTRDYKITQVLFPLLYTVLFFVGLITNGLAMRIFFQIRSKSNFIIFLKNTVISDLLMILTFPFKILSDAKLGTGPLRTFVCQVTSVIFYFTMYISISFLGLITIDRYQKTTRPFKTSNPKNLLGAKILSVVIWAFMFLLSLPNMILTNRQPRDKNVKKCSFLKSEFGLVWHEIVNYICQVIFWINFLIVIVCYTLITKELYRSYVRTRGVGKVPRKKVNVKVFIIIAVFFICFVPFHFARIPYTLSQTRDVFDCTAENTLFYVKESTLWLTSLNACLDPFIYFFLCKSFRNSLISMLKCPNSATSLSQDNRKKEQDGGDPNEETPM

| Compound | solubility [1] | solubility ([3]; SGF, read-out: solubility) | inhibition [4] | IC50 (P2Y purinoceptor 14) | solubility [5] | solubility [6] | also measured |
| --- | --- | --- | --- | --- | --- | --- | --- |
| COc1ccc(C(=O)Nc2cc(C(=O)O)sc2Oc2ccc(C)nc2)cc1 | 2.33 µg/mL (≈ 6.06 µM) | 2.26 µg/mL (≈ 5.88 µM) | 112% | 0.00129 µM | 0.063 µg/mL (≈ 0.164 µM) | 0.423 µg/mL (≈ 1.1 µM) | Stability [2]: Stable |
| Cc1ccc(C(=O)Nc2cc(C(=O)O)cc(-c3ccoc3)c2)cc1 | 0.878 µg/mL (≈ 2.73 µM) | – | – | – | 0.078 µg/mL (≈ 0.243 µM) | 0.471 µg/mL (≈ 1.47 µM) | solubility ([3]; simulated gi fluid): 0.069 µg/mL (≈ 0.215 µM) |
| Cc1ccc(C(=O)Nc2cc(C(=O)O)sc2Oc2ccc(F)nc2)cc1 | 3.253 µg/mL (≈ 8.74 µM) | 0.036 µg/mL (≈ 0.0967 µM) | 83.4% | 0.0176 µM | 0.041 µg/mL (≈ 0.11 µM) | 1.202 µg/mL (≈ 3.23 µM) | – |
| Cc1ccc(Sc2sc(C(=O)O)cc2NC(=O)c2ccc(C)cc2)cc1 | – | – | 88.4% | 0.00653 µM | – | – | – |
| Cc1ccc(C(=O)Nc2cc(C(=O)O)nn2Cc2ccc(F)cc2)cc1 | 0.318 µg/mL (≈ 0.9 µM) | – | – | – | 0.088 µg/mL (≈ 0.249 µM) | 0.203 µg/mL (≈ 0.574 µM) | solubility ([3]; simulated gi fluid): 0.085 µg/mL (≈ 0.241 µM) |
| Cc1ccc(C(=O)Nc2cc(C(=O)O)sc2Oc2ccc(F)cn2)cc1 | 1.995 µg/mL (≈ 5.36 µM) | 0.051 µg/mL (≈ 0.137 µM) | 130% | 0.0004 µM | 0.088 µg/mL (≈ 0.236 µM) | 0.175 µg/mL (≈ 0.47 µM) | Stability [2]: Stable; AUC [7]: 90744 ng·min/mL; bioavailability [8]: 65%; Activity (Mus musculus [9]): Active; AUC [10]: 27924 ng·min/mL; Activity (Mus musculus [11]): Active; Activity (Mus musculus [12]): Active; Activity (Mus musculus [13]): Active; Tmax [14]: 15 min; Activity (Mus musculus [15]): Active; half-life [16]: 21 min; Cmax [17]: 518 ng/mL; Activity (Mus musculus [18]): Active; Activity (Mus musculus [19]): Active; Activity (Mus musculus [20]): Active; half-life [21]: 178 min |
| Cc1ccc(C(=O)Nc2cc(C(=O)O)sc2Oc2ccccn2)cc1 | – | – | 74.9% | 1.69 µM | – | – | – |
| O=C(C1CC1)N1CCc2cc(Br)c(S(=O)(=O)Nc3ccc(C(F)(F)F)c(Cl)c3)cc21 | – | – | – | – | – | – | IC50 (P2Y purinoceptor 4): 13 µM |
| Cc1ccc(Oc2sc(C(=O)O)cc2NC(=O)c2ccccc2)cn1 | – | – | 81.9% | 0.013 µM | – | – | – |
| Cc1ccc(C(=O)Nc2cc(C(=O)O)sc2Oc2ccc(C)nc2)cc1 | 2.37 µg/mL (≈ 6.43 µM) | 0.844 µg/mL (≈ 2.29 µM) | 99.4% | 0.00653 µM | 0.067 µg/mL (≈ 0.182 µM) | 0.189 µg/mL (≈ 0.513 µM) | – |
| CC(=O)Nc1ccc(Oc2sc(C(=O)O)cc2NC(=O)c2ccc(C)cc2)cc1 | – | – | 66% | 18.6 µM | – | – | – |
| CCc1ccc(Oc2sc(C(=O)O)cc2NC(=O)c2ccc(C)cc2)cc1 | – | – | 67.4% | 0.0813 µM | – | – | – |
| S=C=Nc1cccc(NC(=S)NCCCCNC(=S)Nc2cccc(N=C=S)c2)c1 | – | – | – | – | – | – | IC50 (P2Y purinoceptor 6): 0.0234 µM |
| CCCSc1nc(N[C@@H]2C[C@H]2c2ccc(F)c(F)c2)c2nnn([C@@H]3C[C@H](OCCO)[C@@H](O)[C@H]3O)c2n1 [TICAGRELOR] | – | – | – | – | – | – | IC50 (P2Y purinoceptor 12): 1.28 µM |
| Cc1ccc(C(=O)Nc2cc(C(=O)O)sc2Oc2cccc(F)c2)cc1 | – | – | 69.6% | 0.0877 µM | – | – | – |
| Cc1ccc(C(=O)Nc2cc(C(=O)O)sc2Oc2ccc(C)cn2)cc1 | 1.7 µg/mL (≈ 4.61 µM) | 0.03 µg/mL (≈ 0.0814 µM) | 90.6% | 0.00055 µM | 0.039 µg/mL (≈ 0.106 µM) | 0.109 µg/mL (≈ 0.296 µM) | – |
| Cc1ccc(Oc2sc(C(=O)O)cc2NC(=O)c2ccc(C)cc2)cc1 | – | – | 97.4% | 0.00401 µM | – | – | – |
| Cc1ccc(C(=O)Nc2cc(C(=O)O)sc2Oc2ccc(F)cc2)cc1 | – | – | 74.8% | 0.0606 µM | – | – | – |
| C#Cc1ccc(C(=O)Nc2cc(C(=O)O)sc2Oc2ccc(C)nc2)cc1 | – | – | 116% | 0.00751 µM | – | – | – |
| O=C(O)c1cc(-c2ccc(C3CCNCC3)cc2)c2ccc(-c3ccc(C(F)(F)F)cc3)cc2c1 [PPTN] | < 0.005 µg/mL | < 0.005 µg/mL | – | – | < 0.005 µg/mL | < 0.005 µg/mL | – |
